Test results reported in patent publication US20050260158A1, “Human stem cell materials and methods” (priority 2003, published 2005).
Where two headings read alike, the source gives them in different places.

Columns and labels:
[1] = test system: MDSC cultures; experiment: Insulin release from MDSC cultures (insulin ELISA); format: cell-based, human; set-up: insulin release with osmolarity control: dose or concentration left out as unconfirmed
Method: Insulin release. MDSC cultures incubated in 24-well tissue culture plates (Costar, Cambridge, Mass.) at 70-80% confluence were treated for 4-5 days with LPS or CD40Ab. Insulin secretion was assessed as previously described in Schuit, F., et al., J. Biol. Chem. 272:18572-18579 (1997), using an insulin ELISA kit (Linco Research, MO). When required, the untreated or treated cultures were also pre-incubated for 30 min with […] diazoxide, 10 mM tolbudamide, or […] IBMX.

[2] = test system: MDSC colonies Clone 1 and Clone 2; settings: seven days; for Immunostained cells (%), vWF (Endothelial): 50 ng/ml VEGF; for Immunostained cells (%), AFP (Hepatocyte): 50 ng/ml HGF; for Immunostained cells (%), Keratins (Epithelial): 100 ng/ml EGF; for Immunostained cells (%), MAP1-B (Neuronal): 200 ng/ml NGF
Method: To determine whether progeny of colonies derived from single MDSCs can be induced to differentiate into distinct cell lineages, cells from a five-day, 50 ng/ml, M-CSF-treated culture enriched to contain 99.97% peripheral blood monocytes were inoculated into 12 U-bottom tissue culture plates, 96 wells each, at 0.8 cells/well in 0.1-0.2 ml growth medium. The cells were then incubated in the presence of 50 ng/ml M-CSF and 1,000 units/ml LIF for 15-20 days. Additionally, one plate was incubated with 25% conditioned medium from a five-day, 50 ng/ml, M-CSF treated culture. […] The few wells that contained more than one cell were excluded from further experimentation. Medium was replaced every 5-7 days.
At 45-52 days, these cells were dispersed by forceful pipetting, without lidocaine, into flat-bottom, 96-well, tissue culture plates. […] Two colonies of MDSCs, each of which had arisen from a single cell, were chosen for further differentiation experiments and were termed Clone 1 and Clone 2. […] These antibodies separately recognized cell-surface markers that included the T lymphocyte marker CD3, the epithelial marker keratin, the endothelial marker vWF, the neuronal marker MAP1-B, and the hepatocyte marker AFP.

[3] = test system: MDSC cultures; experiment: VEGF-induced endothelial cell differentiation of MDSC cultures; settings: 50 ng/ml VEGF, 5-7 days
Method: MDSC cultures prepared as described above were treated with 50 ng/ml of recombinant human vascular endothelial growth factor165 isoform (VEGF) for 5-7 days.

[4] = test system: MDSC cultures; experiment: HGF-induced hepatocyte differentiation of MDSC cultures; format: cell-based, human
Description: A smaller fraction of 33±4% also immunostained for cytokeratin 7, which is a marker of bile duct epithelium (Ruck et al., Histopathology 31: 324-329 (1997)). Only 8±5% of control cells immunostained for albumin, 6±5% for AFP, and 7±3% for cytokeratin 7.

[5] = test system: MDSCs; experiment: Dispersion of MDSCs from the culture dish by standard digestion; format: cell-based, human; settings: standard digestion for up to 60 minutes
Method: In this example, a feature of the MDSCs is resistance to dispersion by trypsin and/or EDTA, or dispase. […] Therefore, to obtain cell suspensions for subculture, the MDSCs were dispersed by forceful pipetting after incubation with 2% lidocaine in a PBS solution for 5-8 minutes, with the exception of the work described in Example 8.

[6] = test system: MDSC cultures; experiment: EGF-induced epithelial cell differentiation of MDSC cultures; format: cell-based, human; settings: 100 ng/ml EGF, 4 days
Description: To determine whether MDSCs differentiate into lineages other than those of blood cells, the ability to differentiate into epithelial cells was initially tested. […] Only 4±1% of control cells stained for keratins and 3±2% for E-cadherin. Cells that stained positive for E-cadherin consistently stained for keratins.

[7] = test system: MDSC cultures; experiment: bNGF-induced neuronal cell differentiation of MDSC cultures; format: cell-based, human; settings: 200 ng/ml bNGF
Method: To examine the ability of MDSCs to mature along yet another cell lineage, the effect of nerve growth factor (bNGF), an inducer of neuronal differentiation (McAllister et al., Cell. Mol. Life Sci., 58:1054-1060 (2001)), was tested. […] After 5-8 days these processes, some of which were exceedingly long, formed cell-cell contacts and created the appearance of a neural network. These mature cells were further characterized by immunostaining for neuron-specific enolase (NSE), neurofilament (NF) and microtubule-associated protein-1B (MAP-1B), which are well-known markers of neuronal cells (Encinas et al., J. Neurochem., 75:991-1003 (2000)).

[8] = test system: freshly cultured peripheral blood monocytes; experiment: bNGF treatment of freshly cultured peripheral blood monocytes; format: cell-based, human; settings: bNGF for 7 or 20 days
[9] = test system: human peripheral blood monocytes; experiment: Generation and growth of MDSCs in cultured peripheral blood monocytes (morphological examination); format: cell-based
Method: Peripheral blood monocyte (PBM) preparations from about 50 ml buffy coats samples (each from 500 ml peripheral blood) of healthy individuals (LifeSource Blood Services, Glenview, Ill.) were obtained by a selective attachment method as previously described (Hoklland, M. et al., Cell Biology, a laboratory handbook, Celis J. E. ed., Academic Press, 1: 179-181 (1994)). Buffy coat cell samples of 20-25 ml, which were diluted earlier with an equal volume of RPMI 1640 medium (Life Technologies, Inc.), were carefully layered over 20 ml Ficoll-Hypaque (γ=1.077) in 50 ml centrifuge tubes and then centrifuged using a Beckman CPKR centrifuge and a GH-3.7 horizontal rotor at 3,500 rpm (2700 g) for 25 minutes at 4° C. After carefully harvesting the mononuclear cells at the interface, cells were washed 2-3 times with RPMI 1640 medium by centrifugation using a Beckman CPKR centrifuge and a GH-3.7 horizontal rotor at 1,000 rpm (250 g) for 10 minutes. The cells were then used for culture and/or stored in liquid nitrogen in a 90% bovine calf serum and 10% dimethyl sulfoxide solution. The cells, including those obtained from storage in liquid nitrogen, were incubated at 2-3×10^7 cells/15 cm dish. After 8-12 hours incubation at 37° C. (8% CO2), the floating cells were removed and the dishes were rinsed 5 times with RPMI 1640 medium. The attached cells were then detached from the surface of the dishes by forceful pipetting with 5-10 ml of RPMI 1640 medium supplemented with 10% bovine calf serum.
The percentage of PBM was verified by immunostaining with an R-phycoerythin-conjugated mouse anti-human CD14 monoclonal antibody using a Becton Dickinson FACScan. The fraction of CD14 cells in these cell preparations, which were usually used in the experiments, was 90-95%. In a number of experiments, the CD14-immunostained cells were further isolated to a purity of 99.97% by using a droplet cell-sorting method by means of a 5 detector Becton Dickinson FACStarPlus Cell Sorter. The isolated PBMs were inoculated at 1×10^5 cells/ml in 8-well LabTek chamber slides (Nunc, Inc., Naperville, Ill.) at 0.4 ml/well in a 37° C. humidified atmosphere containing 8% CO2. Every five to seven days, one-half of the culture medium was replaced with fresh growth medium. This medium consisted of RPMI-1640 supplemented with 10% heat-inactivated bovine calf serum (Harlan, Indianapolis, Ind.), 100 units/ml penicillin, 100 μg/ml streptomycin, and 2 mM L-glutamine (Life Technologies).
Five preparations of cultured human peripheral blood monocytes, each from a different individual, were treated with 50 ng/ml M-CSF (Zhoa et al., Proc. Natl. Acad. Sci., 100:2426-2431 (2003); incorporated herein by reference in its entirety). After five days of incubation, the cultures contained two major morphologically distinct subsets of cells. The less abundant of the two subsets, containing about 25-35% of the total cells, was composed of elongated cells that morphologically resembled fibroblasts and were termed monocyte-derived stem cells (MDSCs). The other subset, containing about 65-75% of the total, was composed of standard macrophages, which were termed s-macrophages or standard macrophages (s-MΦ) (FIG. 1). […]
In order to determine whether the MDSCs were simply replicating progenitors of s-MΦ, five preparations of cultured peripheral blood monocytes, each from a different human, were treated with 50 ng/ml M-CSF and the number of MDSCs and s-MΦ were determined over a period of 14 days by morphological examination. […]

[10] = 50 ng/ml M-CSF, five days, five monocyte preparations

CC1=NS(=O)(=O)c2cc(Cl)ccc2N1 [diazoxide]
effect on LPS- or CD40Ab-induced insulin release ([1]; high glucose, 30 min pre-incubation): effectively inhibited

VEGF
Immunostained cells (%), vWF (Endothelial) ([2]; Clone 1): 80% | Immunostained cells (%), vWF (Endothelial) ([2]; Clone 2): 87% | cells displaying endothelial cell morphology [3]: about 70% | cells immunostaining for VEGF-R2, VEGF-R3 and vWF [3]: 74±3% | cells immunostaining for neuronal markers NSE, NF and MAP-1B [3]: 31±4%

HGF: recombinant human hepatocyte growth factor
cells displaying round or oval-like flattened morphology ([4]; 100 ng/ml HGF, 5-7 days): 75-80% | cells immunostaining for cytokeratin 7 ([4]; 100 ng/ml HGF, 5-7 days): 33±4% | treated cells immunostaining for AFP ([4]; 100 ng/ml HGF, 5-7 days): 81±7% | treated cells immunostaining for albumin ([4]; 100 ng/ml HGF, 5-7 days): 75±7% | Percentage of cells displaying immunostaining for AFP ([4]; HGF 50 ng/ml (Table 3)): 81 ± 7% | Percentage of cells displaying immunostaining for Albumin ([4]; HGF 50 ng/ml (Table 3)): 75 ± 7% | Percentage of cells displaying immunostaining for Cytokeratin 7 ([4]; HGF 50 ng/ml (Table 3)): 33 ± 4% | Immunostained cells (%), AFP (Hepatocyte) ([2]; Clone 1): 88% | Immunostained cells (%), AFP (Hepatocyte) ([2]; Clone 2): 75%

trypsin
removal of MDSCs from the surface of the culture dish [5]: failed to remove the MDSCs

EGF: promoter of epithelial cell growth and differentiation
MDSCs displaying epithelial cell morphology [6]: about 70% | cells immunostaining for E-cadherin [6]: 68±5% | cells immunostaining for pan-keratins [6]: 71±4% | Immunostained cells (%), Keratins (Epithelial) ([2]; Clone 1): 89% | Immunostained cells (%), Keratins (Epithelial) ([2]; Clone 2): 76%

bNGF: nerve growth factor, an inducer of neuronal differentiation
MDSCs displaying neuronal morphology [7]: about 90% | cells with immunostaining for NSE, NF and MAP-1B ([7]; 5-8 days): about 90% | cells with robust immunostaining for NSE, NF and MAP-1B ([7]; three days): 25% | neuronal differentiation [8]: Little to no neuronal differentiation | Immunostained cells (%), MAP1-B (Neuronal) ([2]; Clone 1): 83% | Immunostained cells (%), MAP1-B (Neuronal) ([2]; Clone 2): 80%

CCCCNC(=O)NS(=O)(=O)c1ccc(C)cc1 [tolbutamide]
effect on LPS- or CD40Ab-induced insulin release ([1]; low glucose (5 mM), 30 minutes, 10 μM tolbudamide, 100 μM IBMX): markedly stimulated

OC[C@@H](O)[C@@H](O)[C@H](O)[C@H](O)CO [Mannite]
insulin release with osmolarity control [1]: little to no insulin release

B1: M-CSF: macrophage colony-stimulating factor, mitogenic compound used to propagate MDSCs (protein, UniProt P09603 33-554, looked up)
Macrophage colony-stimulating …: EEVSEYCSHMIGSGHLQSLQRLIDSQMETSCQITFEFVDQEQLKDPVCYLKKAFLLVQDIMEDTMRFRDNTPNAIAIVQLQELSLRLKSCFTKDYEEHDKACVRTFYETPLQLLEKVKNVFNETKNLLDKDWNIFSKNCNNSFAECSSQDVVTKPDCNCLYPKAIPSSDPASVSPHQPLAPSMAPVAGLTWEDSEGTEGSSLLPGEQPLHTVDPGSAKQRPPRSTCQSFEPPETPVVKDSTIGGSPQPRPSVGAFNPGMEDILDSAMGTNWVPEEASGEASEIPVPQGTELSPSRPGGGSMQTEPARPSNFLSASSPLPASAKGQQPADVTGTALPRVGPVRPTGQDWNHTPQKTDHPSALLRDPPEPGSPRISSLRPQGLSNPSTLSAQPQLSRSHSSGSVLPLGELEGRRSTRDRRSPAEPEGGPASEGAARPLPRFNSVPLTDTGHERQSEGSFSPQLQESVFHLLVPSVILVLLAVGGLLFYRWRRRSHQEPQRADSPLEQPEGSPLTQDDRQVELPV
MDSCs in confluent cultures ([9]; 50 ng/ml M-CSF, after day 10): 80-90% | MDSC population replication interval ([9]; 50 ng/ml M-CSF, estimated from growth curve after 6 days): three | MDSCs, share of the total cells [9, 10]: 25-35% | standard macrophages (s-MΦ), share of the total cells [9, 10]: 65-75% | cells with MDSC morphology ([9]; 50 ng/ml, 7-9 days): 70-80%
